Experimental data as given in patent publication US3998874A, “Phenylene di-ethers” (Gist-Brocades N.V., priority 1974, dated 1976).
Counter-ions that a name gives are not always drawn.

Experiments:
cardiac β-receptors = target: T1, cardiac β-receptors (Cavia porcellus, UniProt H0W3H1); assay: antagonism to cardiac β-receptors on isolated, spontaneously beating right atrium (isoprenaline chronotropism, pA2); conditions: isolated right atrium guinea pig, vs isoprenaline; R = isopropyl for A-E
T1 construct: on the isolated, spontaneously beating, right atrium of the guinea pig; from tissue; host or cells: guinea pig right atrium (isolated, spontaneously beating)
T1 sequence (H0W3H1 1-470): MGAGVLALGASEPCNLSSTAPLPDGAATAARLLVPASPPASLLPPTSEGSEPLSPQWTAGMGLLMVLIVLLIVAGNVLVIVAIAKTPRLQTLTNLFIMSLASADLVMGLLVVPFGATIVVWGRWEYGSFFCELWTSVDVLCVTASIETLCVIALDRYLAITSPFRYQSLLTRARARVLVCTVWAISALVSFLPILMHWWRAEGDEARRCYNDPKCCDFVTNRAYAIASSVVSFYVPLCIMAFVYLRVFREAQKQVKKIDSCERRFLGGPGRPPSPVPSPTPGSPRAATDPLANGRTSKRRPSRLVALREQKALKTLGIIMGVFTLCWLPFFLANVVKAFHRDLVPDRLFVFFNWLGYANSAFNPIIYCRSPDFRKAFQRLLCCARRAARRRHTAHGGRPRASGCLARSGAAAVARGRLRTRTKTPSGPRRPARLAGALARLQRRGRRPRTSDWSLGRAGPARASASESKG

[1] = tested on: right atrial muscles from guinea pigs; assay: anti-arrhythmic activity in vitro, ouabain-induced arrhythmia in right atrial muscles; set-up: species or system guinea pig; conditions: Cavia porcellus; minimal drug concentration (M) preventing any arrhythmia, ouabain 0.5 μg/ml, 37° C, pH 7.4; read-out: Antiarrh. act. -log min. dose (converted)
Protocol: The anti-arrhythmic activity in vitro was determined as follows. Right atrial muscles from guinea pigs were dissected and freed from the appendage. They were suspended in 100 ml of a modified Ringer-Locke solution (g/l: […] Spontaneous contractions were recorded on a Schwarzer ECG (Cardioscript III) using an […] Transducer (8101) in a Wheatstone bridge circuit. Tension was so adjusted that contractions reached maximal amplitude while keeping distortion of the baseline minimal. After a 40-min equilibrium period the test compound was added and for 30 minutes contractile force and rate were recorded at 1-min intervals for 10 seconds. Next, ouabain was added in a concentration of 0.5 μg/ml and force and rate were measured at 1-min intervals over a 60-min period. […] This was confirmed at least once. Control experiments without test compounds were carried out daily.

[2] = hygroscopicity (observation in the synthesis example); format: physicochemical; conditions: dihydrochloride
[3] = target: T2, β-adrenergic (guinea pig tracheal chain) (Cavia porcellus, UniProt Q8K4Z4); assay: β-adrenergic blocking activity on guinea pig tracheal chain (antagonism of isoprenaline relaxation, pA2); conditions: vs isoprenaline, R = isopropyl for A-E
T2 construct: determined on the guinea pig tracheal chain; from tissue; host or cells: guinea pig tracheal chain (isolated)
T2 sequence (Q8K4Z4 whole entry): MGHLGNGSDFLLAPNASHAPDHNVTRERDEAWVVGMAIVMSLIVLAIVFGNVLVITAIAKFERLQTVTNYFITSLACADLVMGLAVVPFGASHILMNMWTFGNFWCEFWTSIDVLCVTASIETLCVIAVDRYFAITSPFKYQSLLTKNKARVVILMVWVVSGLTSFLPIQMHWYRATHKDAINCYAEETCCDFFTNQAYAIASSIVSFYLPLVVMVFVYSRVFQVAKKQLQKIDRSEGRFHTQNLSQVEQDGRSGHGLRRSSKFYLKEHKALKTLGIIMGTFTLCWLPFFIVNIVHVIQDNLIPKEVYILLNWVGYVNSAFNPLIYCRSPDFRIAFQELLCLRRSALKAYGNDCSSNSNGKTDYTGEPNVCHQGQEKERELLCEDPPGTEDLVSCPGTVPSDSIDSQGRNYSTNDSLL
Protocol: The β-adrenergic blocking activity was determined on the guinea pig tracheal chain prepared as described by H. Timmerman and N. G. Scheffer, J. Pharm. […] Int. Pharmacodyn. […] The pA2-values were calculated according to Van Rossum from the parallel shift to the right of the log dose - response curves.

[4] = tested on: aconitine-induced arrhythmias; assay: in vivo antagonism of aconitine-induced arrhythmias; set-up: species or system male rats; conditions: for % protection: vs control; for Dose of aconitine inducing arrhythmias: aconitine infusion 5 μg/kg/min
Protocol: This test was carried out in male rats under urethane anaesthesia as described by B. Vargaftig and J. L. Coignet, Eur. J. Pharmacol., 6, 49 (1969). It was estimated what dose of aconitine in an i.v. infusion (5 μ g/kg/min, rate 0.2 ml/min) would induce arrhythmias. Three minutes before the infusion physiological saline with or without test compound was injected i.v.

CC(C)NCC(O)COc1ccc(C(C)C)cc1OCC(O)CNC(C)C.Cl.Cl (stereo not shown) [E, 1,1'-[(4-isopropyl-o-phenylene)dioxy]-bis-[3-(isopropylamino)-propan-2-ol] dihydrochloride]
Kb (cardiac β-receptors): 2290 nM
minimal effective concentration [1]: 2e-05 M
hygroscopicity [2]: very hydroscopic
pA2 trachea [3]: 6.48 (±0.09)

CC(C)NCC(O)COc1ccccc1OCC(O)CNC(C)C (stereo not shown) [A, 1,1'-(o-phenylenedioxy)-bis-[3-(isoproyl-amino)propan-2-ol] dihydrochloride]
Kb (cardiac β-receptors): 324 nM
minimal effective concentration [1]: 0.0002 M
pA2 trachea [3]: 6.73 (±0.05)
% protection ([4]; 4 mg/kg i.v.): 12.9%
% protection ([4]; 8 mg/kg i.v.): 35.5%
% protection ([4]; 16 mg/kg i.v.): 110.8%
Dose of aconitine inducing arrhythmias ([4]; test compound 4 mg/kg i.v.): 0.0315 mg/kg
Dose of aconitine inducing arrhythmias ([4]; test compound 8 mg/kg i.v.): 0.0378 mg/kg
Dose of aconitine inducing arrhythmias ([4]; test compound 16 mg/kg i.v.): 0.0588 mg/kg

Cc1cccc(OCC(O)CNC(C)C)c1OCC(O)CNC(C)C.Cl.Cl (stereo not shown) [B, 1,1'-[(3-methyl-o-phenylene)dioxy]-bis-[3-(isopropylamino)propan-2-ol] dihydrochloride]
Kb (cardiac β-receptors): 3310 nM
minimal effective concentration [1]: 2e-05 M
pA2 trachea [3]: 5.80 (±0.08)

CC(C)NCC(O)COc1cccc(C(C)C)c1OCC(O)CNC(C)C (stereo not shown) [C, 1,1'-[(3-isopropyl-o-phenylene)dioxy]-bis-[3-(isopropylamino)-propan-2-ol]dihydrochloride]
Kb (cardiac β-receptors): 25700 nM
minimal effective concentration [1]: 1e-05 M
pA2 trachea [3]: 5.35 (±0.11)
% protection ([4]; 0.5 mg/kg i.v.): 44.0%
% protection ([4]; 1.0 mg/kg i.v.): 79.6%
% protection ([4]; 2.0 mg/kg i.v.): 135.5%
Dose of aconitine inducing arrhythmias ([4]; test compound 0.5 mg/kg i.v.): 0.0458 mg/kg
Dose of aconitine inducing arrhythmias ([4]; test compound 1.0 mg/kg i.v.): 0.0571 mg/kg
Dose of aconitine inducing arrhythmias ([4]; test compound 2.0 mg/kg i.v.): 0.0749 mg/kg

CC(C)(C)NCC(O)COc1ccccc1OCC(O)CNC(C)(C)C (stereo not shown) [F, 1,1'-(o-phenylenedioxy)-bis-[3-(tert.-butylamino)-propan-2-ol]dihydrochloride]
% protection ([4]; 4 mg/kg i.v.): 41.7%
% protection ([4]; 8 mg/kg i.v.): 104.2%
% protection ([4]; 16 mg/kg i.v.): 158.6%
Dose of aconitine inducing arrhythmias ([4]; test compound 4 mg/kg i.v.): 0.034 mg/kg
Dose of aconitine inducing arrhythmias ([4]; test compound 8 mg/kg i.v.): 0.049 mg/kg
Dose of aconitine inducing arrhythmias ([4]; test compound 16 mg/kg i.v.): 0.062 mg/kg

Cc1ccc(OCC(O)CNC(C)C)c(OCC(O)CNC(C)C)c1.Cl.Cl (stereo not shown) [D, 1,1'-[(4-methyl-o-phenylene)dioxy]-bis-[3-(isopropylamino)-propan-2-ol] dihydrochloride]
Kb (cardiac β-receptors): 603 nM
minimal effective concentration [1]: 5.01e-05 M
pA2 trachea [3]: 6.66 (±0.09)

CC(C)NCC(O)COc1ccccc1 (stereo not shown) [G, 1-(isopropylamino)-3-phenoxy-2-propanol, reference compound]
Kb (cardiac β-receptors): 0.977 nM
minimal effective concentration [1]: 0.000302 M
Kb ([3]; read-out: pA2 trachea (converted)): 24.5 nM
